Results reported in patent publication US9273095B2, “Antibiotic peptide and preparation method therefor and application therefor” (priority 2011, dated 2016).
In brackets after ≈: the same amount, converted by molar mass. Read-outs that look alike come from different tables or passages of the source. Non-standard residues stand in square brackets, D forms with d. Residues, ends and D or L forms follow the SMILES beside them.

Columns and labels:
Enterobacter cloacae = experiment: microbe, parasite or virus in culture; type: cell-based
Description: (§1) The experimental strains are 37 standard strains preserved in lab and clinical isolated bacteria, including drug-resistant bacteria and quality-control bacteria selecting Staphylococcus aureus ATCC29213, Enterococcus faecalis ATCC29212, Escherichia coli ATCC25922, Pseudomonas aeruginosa ATCC27853 and klebsiella pneumoniae ATCC700603.
(§2) (1) Sensitivity test is conducted with two-fold agar dilution method and Denlay multipoint inoculator. Test bacteria are cultured with nutrient broth and brain heart infusion.
(§3) (2) The drug is double diluted into different concentration with MH broth after dissolved and then placed in the plate respectively.
(§4) (3) After dissolved, MH agar culture medium are injected into the plate with drug quantitatively and mixed to make the final concentration of drug are 0.03, 0.06, 0.125, . . . , 128 μg/ml respectively.
(§5) (4) After solidification of the culture medium in the plate, test bacteria (10^4CFU/point) are inoculated by multipoint inoculator and cultured for 18 hours at constant 35° C. Then observe the results.

[1] = test system: Acinetobacter calcoaceticus; experiment: microbe, parasite or virus in culture; type: cell-based
Description: as §1, §2, §3, §4, §5

Salmonella typhimurium = experiment: microbe, parasite or virus in culture; type: cell-based
Description: as §1, §2, §3, §4, §5

Proteus vulgaris = experiment: microbe, parasite or virus in culture; type: cell-based
Description: as §1, §2, §3, §4, §5

Serratia marcescens = experiment: microbe, parasite or virus in culture; type: cell-based
Description: as §1, §2, §3, §4, §5

Feilaoti citrobacter = experiment: microbe, parasite or virus in culture; type: cell-based
Description: as §1, §2, §3, §4, §5

Enterobacter aerogenes = experiment: microbe, parasite or virus in culture; type: cell-based
Description: as §1, §2, §3, §4, §5

Enterococcus faecalis = experiment: organism not typed; type: cell-based
Description: as §1, §2, §3, §5

candida tropicalis = experiment: microbe, parasite or virus in culture; type: cell-based
Summary of the method: (§6)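 Broth dilution in RPMI-1640 with PL-13 peptide diluted 10-fold from stock; inoculum 1-3×10^3 CFU/ml in the test. Strains activated at 60% humidity, 25 °C for aspergillus or 37 °C for candida; living and blank control wells included.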

candida glabrata = experiment: microbe, parasite or virus in culture; type: cell-based
Summary of the method: as §6

candida albicans = experiment: microbe, parasite or virus in culture; type: cell-based
Summary of the method: as §6

aspergillus flavous = experiment: microbe, parasite or virus in culture; type: cell-based
Summary of the method: as §6

aspergillus fumigatus = experiment: microbe, parasite or virus in culture; type: cell-based
Summary of the method: as §6

[2] = RP-HPLC temperature profiling: hydrophobicity and self-association; type: physicochemical; conditions: for tR(min) 5° C. / tR(min) 80° C.: RP-HPLC temperature profiling; for PA (min), association parameter: maximal normalized retention time difference within 5-80° C., self-association ability; for tR(min) Max: maximal retention time during temperature profiling 5-80° C.; for ΔtR(X-Peptide C)(min) 5° C.: retention time difference to control peptide C at 5° C.; for ΔtR(X-Peptide C)(min) 5° C. / ΔtR(X-Peptide C)(min) 80° C.: relative hydrophobicity; for ΔtR(X-Peptide C)(min) 80° C.: retention time difference to control peptide C at 80° C.; for Hydrophobicity tR5: retention time in RP-HPLC at pH 2, 5° C.; for Hydrophobicity tR80: retention time in RP-HPLC at pH 2, 80° C.
Description: Peptides are analyzed on an Agilent 1200 series liquid chromatograph (Little Falls, Del.). Runs are performed on a Zorbax 300 SB-C8 column (150×4.6 mm I.D.; 5 μm particle size, 300 Å pore size) from Agilent Technologies using linear AB gradient (1% acetonitrile/min) and a flow rate of 1 ml/min, where solvent A is 0.05% aqueous TFA, pH 2 and solvent B is 0.05% TFA in acetonitrile.
We further use temperature profiling during RP-HPLC to determine the self-association ability of various analogs of PL-13 (SEQ ID NO: 1) which would occur through interaction of the non-polar faces of these amphipathic peptides α-helices. We use 50% TFE aqueous acetonitrile and hydrophobic conditions in the reversed-phase column (hydrophobic stationary phase and the hydrophobic organic solvent in the mobile phase) since the hydrophobic environment of a reversed-phase column also could induce α-helical structure. Since its introduction, the technique of RP-HPLC temperature profiling has been applied on several types of molecules, including cyclic β-sheet peptides, monomeric α-helices and α-helices that dimerize, as well as α-helices that dimerize to form coiled-coils. Although peptides are eluted from a reversed-phase column mainly by an adsorption/desorption mechanism, even a peptide strongly bound to a hydrophobic stationary phase will partition between the matrix and the mobile phase when the acetonitrile content becomes high enough during gradient elution. In summary, the mechanism is based on four assumptions: (i) at low temperature, just as an amphipathic α-helical peptide is able to dimerize in aqueous solution (through its hydrophobic, non-polar face), it will dimerize in solution during partitioning in reversed-phase chromatography; (ii) at higher temperatures, the monomer-dimer equilibrium favors the monomer as the dimer is disrupted; (iii) at sufficiently high temperatures, only monomer is present in solution; and (iv) peptide is always bound in its monomeric helical form to the hydrophobic stationary phase, i.e., the dimer can only be present in solution and disruption of the dimer is required for rebinding to the RP-HPLC matrix.
([θ]222=−3,950). Since peptide C is a monomeric random coil peptide in both aqueous and hydrophobic media, its retention behavior over the temperature range 5-80° C. represents only general temperature effects on peptide retention behavior, i.e., a linear decrease in peptide retention time with increasing temperature due to greater solute diffusivity and enhanced mass transfer between the stationary and mobile phases at higher temperatures. Thus, after normalization to the retention times of peptide C, the retention behavior of the peptides only represents peptide self-association ability. Note that the higher the PA value, the greater the self-association ability. The order of peptide self-association ability of the three pairs of peptide enantiomers is identical to the order of peptide hydrophobicity. Apart from the decrease in retention time due to the general temperature effects noted above, destruction of the α-helix will also occur with increasing temperature, resulting in reduced retention times as the peptides become increasingly random coils.
The retention time data for the peptides is shown in Table 6 which records retention times at 5° C., the maximal retention times and retention times at 80° C. during the temperature profiling. Temperatures of 5-80° C. are the lower and upper temperature limits of temperature profiling in RP-HPLC, representing polymerization of the peptides at 5° C. and the monomerization of peptides at 80° C. due to denaturation of peptides by high temperature and dissociation of the polymers. The maximal retention times represent the threshold points at which peptides totally transform from polymeric to monomeric form. […]

[3] = 06-71 (VRE) Vancomycin-resistant Enterococci, read-out: MIC
[4] = HH22* (AMEs) Aminoglycoside-modifying enzyme, read-out: MIC
[5] = strain 06-7 (listed under Enterococcus faecalis), read-out: MIC

Compound	MIC (Enterobacter cloacae; Enterobacter cloacae 45301) [µM]	MIC (Proteus vulgaris; Proteus vulgaris 56) [µM]	MIC (Serratia marcescens; Serratia marcescens 41002) [µM]	MIC (Feilaoti citrobacter; Feilaoti citrobacter 48001) [µM]	MIC (Enterococcus faecalis; [3]) [µM]	MIC (Enterococcus faecalis; [4]) [µM]	MIC (Enterococcus faecalis; [5]) [µM]	tR(min) 5° C. [2] [min]	tR(min) 80° C. [2] [min]	PA (min), association parameter [2] [min]	tR(min) Max [2] [min]	ΔtR(X-Peptide C)(min) 5° C. [2] [min]	ΔtR(X-Peptide C)(min) 80° C. [2] [min]	Hydrophobicity tR5 [2] [min]	Hydrophobicity tR80 [2] [min]	MIC (Enterobacter cloacae) [µM]	MIC [1]	MIC (Salmonella typhimurium; murium) [µM]	MIC (Proteus vulgaris) [µM]	MIC (Serratia marcescens) [µM]	also measured
C[C@H]1COc2c(N3CCN(C)CC3)c(F)cc3c(=O)c(C(=O)O)cn1c23 [Levofloxacin, levofloxacin, reference compound]	0.1 (≈ 0.0361 µg/mL)	< 0.007	0.1 (≈ 0.0361 µg/mL)	0.1 (≈ 0.0361 µg/mL)	2.4 (≈ 0.867 µg/mL)	–	–	–	–	–	–	–	–	–	–	–	–	–	–	–	MIC ([1]; Acinetobacter calcoaceticus, Acinetobacter calcoaceticus25001): 0.1 µM (≈ 0.0361 µg/mL); MIC (Salmonella typhimurium; Salmonella enterica, Salmonella typhimurium): < 0.02 µM; MIC (Enterobacter aerogenes; Klebsiella aerogenes, Enterobacter aerogenes 45102): < 0.02 µM; MIC (Enterococcus faecalis; Enterococcus faecalis, ATCC29212, Enterococcus faecalis ATCC29212): 1.2 µM (≈ 0.434 µg/mL); MIC (Enterococcus faecalis; Enterococcus faecalis, HH22* (AMEs) Aminoglycoside-modifying enzyme): 1.2 µM (≈ 0.434 µg/mL); MIC (Enterococcus faecalis; Enterococcus faecalis, strain 06-7 (listed under Enterococcus faecalis)): 19.2 µM (≈ 6.95 µg/mL)
CC[C@@H](C)[C@@H](NC(=O)[C@@H](CCCCN)NC(=O)[C@@H](CO)NC(=O)[C@@H](Cc1ccccc1)NC(=O)[C@@H](CC(C)C)NC(=O)[C@@H](CCCCN)NC(=O)[C@@H](CCC(=O)O)NC(=O)[C@@H](CC(C)C)NC(=O)[C@@H](CCCNC(=N)N)NC(=O)[C@@H](CCCCN)NC(=O)[C@@H](Cc1ccccc1)NC(C)=O)C(=O)N[C@H](Cc1c[nH]c2ccccc12)C(=O)N[C@H](CC(N)=O)C(=O)N[C@H](Cc1c[nH]c2ccccc12)C(=O)N[C@H](CCCCN)C(N)=O [PL-17] (Ac-[dF][dK][dR][dL][dE][dK][dL][dF][dS][dK][dI][dW][dN][dW][dK]-NH2)	1.3 (≈ 2.68 µg/mL)	5.3 (≈ 10.9 µg/mL)	1.3 (≈ 2.68 µg/mL)	2.7 (≈ 5.57 µg/mL)	1.7 (≈ 3.51 µg/mL)	10.7 (≈ 22.1 µg/mL)	5.3 (≈ 10.9 µg/mL)	–	–	–	–	–	–	–	–	–	–	–	–	–	MIC ([1]; Acinetobacter calcoaceticus25001): 1.3 µM (≈ 2.68 µg/mL); MIC (Salmonella typhimurium; Salmonella typhimurium): 1.3 µM (≈ 2.68 µg/mL); MIC (Enterobacter aerogenes; Enterobacter aerogenes 45102): 1.3 µM (≈ 2.68 µg/mL); Minimal inhibitory concentration (candida tropicalis; JLC 31379 candida tropicalis): 2 µg/mL (≈ 0.969 µM); Minimal inhibitory concentration (candida tropicalis; JLC 31384 candida tropicalis): 2 µg/mL (≈ 0.969 µM); Minimal inhibitory concentration (candida glabrata; JLC 30367 candida glabrata): 4 µg/mL (≈ 1.94 µM); Minimal inhibitory concentration (candida glabrata; JLC 31512 candida glabrata): 8 µg/mL (≈ 3.88 µM); Minimal inhibitory concentration (candida albicans; JLC 33659 candida albicans): 4 µg/mL (≈ 1.94 µM); Minimal inhibitory concentration (candida albicans; JLC 33660 candida albicans): 4 µg/mL (≈ 1.94 µM); Minimal inhibitory concentration (aspergillus flavous; JLC 30784 aspergillus flavous): >64 µg/mL; Minimal inhibitory concentration (aspergillus flavous; JLC 40437 aspergillus flavous): >64 µg/mL; Minimal inhibitory concentration (aspergillus fumigatus; JLC 30506 aspergillus fumigatus): 32 µg/mL (≈ 15.5 µM); Minimal inhibitory concentration (aspergillus fumigatus; JLC 30883 aspergillus fumigatus): 32 µg/mL (≈ 15.5 µM); MIC (Enterococcus faecalis; Enterococcus faecalis ATCC29212, read-out: MIC): 5.3 µM (≈ 10.9 µg/mL)
CC(=O)N[C@H](Cc1ccccc1)C(=O)N[C@H](CCCCN)C(=O)N[C@H](CCCCN)C(=O)N[C@H](Cc1ccccc1)C(=O)N[C@H](CCCCN)C(=O)N[C@H](CCCCN)C(=O)N[C@H](CC(C)C)C(=O)N[C@H](CC(C)C)C(=O)N[C@H](CO)C(=O)N[C@H](CCCCN)C(=O)N[C@H](CC(C)C)C(=O)N[C@H](Cc1c[nH]c2ccccc12)C(=O)N[C@H](CC(N)=O)C(=O)N[C@H](Cc1c[nH]c2ccccc12)C(=O)N[C@H](CCCCN)C(N)=O [PL-43] (Ac-[dF][dK][dK][dF][dK][dK][dL][dL][dS][dK][dL][dW][dN][dW][dK]-NH2; N-terminus and C-terminus assumed)	–	–	–	–	–	–	–	41.64	40.52	1.65	41.97	19.08	20.60	41.64	40.52	0.03 (≈ 0.0611 µg/mL)	0.3 µM (≈ 0.611 µg/mL)	0.3 (≈ 0.611 µg/mL)	0.3 (≈ 0.611 µg/mL)	0.3 (≈ 0.611 µg/mL)	MIC (Feilaoti citrobacter): 0.3 µM (≈ 0.611 µg/mL); MIC (Enterobacter aerogenes): 0.003 µM (≈ 0.00611 µg/mL); Minimal inhibitory concentration (candida glabrata): 32 µg/mL (≈ 15.7 µM); Minimal inhibitory concentration (aspergillus flavous): >64 µg/mL; Minimal inhibitory concentration (aspergillus fumigatus): 64 µg/mL (≈ 31.4 µM)
Ac-FKKLKKLFSKLWNWK-NH2 [PL-13]	–	–	–	–	1.7	1.7	1.3	35.75	33.37	0.56	35.75	13.19	13.45	35.75	33.37	1.3	.3 µM	1.3	0.3	0.3	MIC (Feilaoti citrobacter): 1.3 µM; MIC (Enterobacter aerogenes): 2.7 µM; Minimal inhibitory concentration (candida albicans): 8 µg/mL; Minimal inhibitory concentration (aspergillus flavous): >64 µg/mL; Minimal inhibitory concentration (aspergillus fumigatus): 32 µg/mL; MIC (Enterococcus faecalis; read-out: MIC): 5.3 µM
